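Test compounds were applied to cells in 96-well plates for 48 hours at 5 doses. At the GI50, growth is halved.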 Calls of active or inactive are those of the source. Rule as the data show it: active = GI50 up to about 1.1 µM and inactive = higher.
Tests used:
Test in all cases: growth of human tumour cells (NCI), 48 h
[1] = system: DU-145
[2] = system: ACHN
[3] = system: T47D
[4] = system: CCRF-CEM
[5] = system: SK-MEL-28
[6] = system: Malme-3M
[7] = system: EKVX
[8] = system: SF-539
[9] = system: PC-3
[10] = system: OVCAR-8
[11] = system: HCC 2998
[12] = system: MDA-N
[13] = system: MCF7
[14] = system: SR
[15] = system: KM12
[16] = system: OVCAR-3
[17] = system: TK-10
[18] = system: HL-60
[19] = system: U-251
[20] = system: OVCAR-4

Measured: GI50

CC1=NN(C(=O)CC(=O)NC(=O)/C=C\c2ccccc2)C(=O)C1/N=N/c1ccc([N+](=O)[O-])cc1 (stereo not given)
inactive: [1] 55.7 µM | [2] 37.4 µM | [3] > 100 µM | [4] 42 µM | [5] > 100 µM | [6] > 100 µM | [7] 46.9 µM | [8] > 100 µM | [9] > 100 µM | [10] > 100 µM | [11] > 100 µM | [12] > 100 µM | [13] > 100 µM | [14] > 10 µM | [15] 30 µM | [16] 50.7 µM | [17] 48.5 µM | [18] > 100 µM | [19] 35.3 µM

O=C1C=CC2(C=C1)O[C@H](CCc1ccccc1)[C@@H](CCc1ccccc1)O2
inactive: [1] > 100 µM | [2] > 100 µM | [3] 76.4 µM | [4] > 100 µM | [5] > 100 µM | [6] > 100 µM | [7] 24 µM | [20] 85.5 µM | [8] > 100 µM | [9] > 100 µM | [10] > 100 µM | [12] > 100 µM | [13] > 100 µM | [14] > 100 µM | [15] > 100 µM | [16] > 100 µM | [17] > 100 µM | [18] > 100 µM | [19] 20.2 µM

Cc1ccc(/C=C/C(=O)Oc2ccc(/C=C3\CCC/C(=C\c4ccc(OC(=O)/C=C/c5ccc(C)cc5)cc4)C3=O)cc2)cc1
inactive: [1] > 100 µM | [2] 37.3 µM | [3] 92.3 µM | [4] 60.8 µM | [5] > 100 µM | [7] > 100 µM | [20] > 100 µM | [8] 21.3 µM | [9] > 100 µM | [10] 67.1 µM | [11] > 100 µM | [12] > 100 µM | [13] > 100 µM | [14] 27.5 µM | [15] > 100 µM | [16] > 100 µM | [17] 31.4 µM | [18] 57.4 µM | [19] 34 µM

O=C(/C=C/c1ccccc1)Oc1ccc(C(=O)/C=C/c2ccc(Cl)cc2)cc1
inactive: [1] 59.8 µM | [2] > 100 µM | [3] 66.7 µM | [4] 17.4 µM | [5] > 100 µM | [6] > 100 µM | [7] > 100 µM | [8] 28 µM | [9] 59.7 µM | [10] 42.3 µM | [11] 41.3 µM | [12] 37.2 µM | [13] 36.4 µM | [14] 3.23 µM | [15] 33.8 µM | [16] > 100 µM | [17] > 100 µM | [18] 71.1 µM | [19] 20.7 µM

N=C(N)N/N=C/c1c(-c2ccc(Cl)cc2)nc2sccn12
inactive: [1] 3.34 µM | [2] 1.5 µM | [3] 1.33 µM | [4] 1.79 µM | [5] 1.85 µM | [6] 2.71 µM | [7] 14.6 µM | [20] 2.06 µM | [8] 1.83 µM | [9] 1.62 µM | [10] 1.95 µM | [11] 1.35 µM | [12] 1.79 µM | [13] 1.72 µM | [14] 3.46 µM | [15] 1.96 µM | [16] 1.6 µM | [17] 3.01 µM | [19] 1.86 µM

CCc1nc(N)nc(N)c1-c1ccc(N2CCNCC2)cc1
inactive: [1] 62.7 µM | [2] 51.3 µM | [3] 57.7 µM | [4] 33.7 µM | [5] > 78.5 µM | [7] > 83 µM | [20] 74.8 µM | [8] 77.3 µM | [9] 49.3 µM | [10] 66.5 µM | [11] 42.8 µM | [12] 64.7 µM | [13] 47.3 µM | [14] 23.4 µM | [15] > 95.9 µM | [16] > 83.8 µM | [17] > 100 µM | [18] 34.4 µM | [19] 88.7 µM

CCOC(=O)N1CCC2C(=C(C)C(C)C3=C2C(=O)c2ccccc2C3=O)C1 (stereo not given)
inactive: [1] 2.45 µM | [3] 9.55 µM | [4] 9.44 µM | [5] 5.05 µM | [6] 1.82 µM | [7] > 10 µM | [20] > 10 µM | [9] 4.4 µM | [10] 6.18 µM | [11] 5.19 µM | [12] 3.33 µM | [13] 4.21 µM | [14] 3.8 µM | [15] 5.81 µM | [17] > 10 µM | [18] 2.07 µM

From ChEMBL document CHEMBL1201862, “PubChem BioAssay data set” (2004)
